From publication PMC7578299, “The antiviral effects of baloxavir marboxil against influenza A virus infection in ferrets” (Influenza and Other Respiratory Viruses, 2020)

Assays:
Format in all cases: in vitro ADME
[1] = Metabolic stability in liver microsomes, monkey; settings: for % Residual in liver microsome: monkey, 2 μmol/L, pH 7.4
Description: (§1) Liver microsomes were prepared from ferrets, rats, dogs, and monkeys, as previously described. ^28 Human liver microsomes were obtained from Sekisui‐XenoTech, LLC and pooled (n = 15). Metabolic stability of the compounds in liver microsomes was tested in duplicate. Oseltamivir and cefcapene pivoxil were used as reference compounds. Liver microsomes at 0.5 mg/mL concentration (final volume of 0.2 mL) were incubated in Tris‐HCl buffer (pH 7.4), containing 50 mmol/L Tris‐HCl, 150 mmol/L KCl, 10 mmol/L MgCl2. The hydrolysis reaction was initiated by applying the test compound solution (final concentration 2 μmol/L). After incubation for 10, 20, and 30 minutes at 37°C, the hydrolysis was terminated by the addition of twofold volume of ice‐cold acetonitrile/methanol (1:1, v/v). Samples were centrifuged at 3000 rpm for 10 minutes prior to LC‐MS/MS analysis of compounds in the supernatants.

[2] = Metabolic stability test, control (microsome free); settings: 2 μmol/L, pH 7.4
Description: as §1

[3] = Metabolic stability in liver microsomes, ferret; settings: for % Residual in liver microsome: ferret, 2 μmol/L, pH 7.4
Description: as §1

[4] = Metabolic stability in liver microsomes, human; settings: 2 μmol/L, pH 7.4
Description: as §1

[5] = Metabolic stability in liver microsomes, rat; settings: for % Residual in liver microsome: 2 μmol/L, pH 7.4
Description: as §1

[6] = Metabolic stability in liver microsomes, dog; settings: for % Residual in liver microsome: 2 μmol/L, pH 7.4
Description: as §1

## CC/C=C(\C(=O)N[C@@H]1C(=O)N2C(C(=O)OCOC(=O)C(C)(C)C)=C(COC(N)=O)CS[C@H]12)c1csc(N)n1.Cl [Cefcapene pivoxil, cefcapene pivoxil hydrochloride]
[1]
  % Residual in liver microsome Individual value: 0.0%

## CCOC(=O)C1=C[C@@H](OC(CC)CC)[C@H](NC(C)=O)[C@@H](N)C1 [OSP, oseltamivir phosphate]
[2]; 10 min
  % Residual, Control (Microsome free): 106.4%
[2]; 20 min
  % Residual, Control (Microsome free): 105.4%
[2]; 30 min
  % Residual, Control (Microsome free): 111.3%
[3]; 10 min
  % Residual in liver microsome: 106.5%
[3]; 20 min
  % Residual in liver microsome: 107.2%
[3]; 30 min
  % Residual in liver microsome: 109.0%
[3]; microsomes
  stability in liver microsomes (in words): stable
[4]; 10 min
  % Residual in liver microsome: 89.8%
[4]; 20 min
  % Residual in liver microsome: 64.8%
[4]; 30 min
  % Residual in liver microsome: 49.7%
[5]; 10 min
  % Residual in liver microsome: 110.8%
[5]; 20 min
  % Residual in liver microsome: 119.2%
[5]; 30 min
  % Residual in liver microsome: 117.3%
[5]; microsomes
  stability in liver microsomes (in words): stable
[1]; 10 min
  % Residual in liver microsome: 73.6%
[1]; 20 min
  % Residual in liver microsome: 59.1%
[1]; 30 min
  % Residual in liver microsome: 45.2%
[6]; 10 min
  % Residual in liver microsome: 115.8%
[6]; 20 min
  % Residual in liver microsome: 109.6%
[6]; 30 min
  % Residual in liver microsome: 110.5%
[6]; microsomes
  stability in liver microsomes (in words): stable
